Source: patent US12607406B2, “Recombinant virus, composition comprising the same, and uses thereof” (ACADEMIA SINICA, priority 2016, dated 2026)

Key:
[1] = test system: Influenza A virus A/WSN/33 (H1N1) neuraminidase (NA), wild type, SEQ ID NO: 4; assay type: biochemical
[2] = test system: Influenza A virus A/WSN/33 (H1N1) neuraminidase (NA) on virus, wild type, SEQ ID NO: 4; assay type: biochemical

Compound | Kcat [1] [s⁻¹] | Km [1] [µM] | Vmax [1] [nM/s] | Km [2] [µM]
CC(=O)N[C@H]1[C@H]([C@H](O)[C@H](O)CO)O[C@@](O[C@H]2[C@@H](O)[C@@H](CO)O[C@@H](O[C@H]3[C@H](O)[C@@H](NC(C)=O)C(O)O[C@@H]3CO)[C@@H]2O)(C(=O)O)C[C@@H]1O (stereo partly drawn) [3SLN, 3′-sialyl-N-acetyllactosamine] | 688.2 | 125 | 7.04 | 115
CC(=O)N[C@H]1[C@H]([C@H](O)[C@H](O)CO)O[C@@](Oc2ccc3c(C)cc(=O)oc3c2)(C(=O)O)C[C@@H]1O [4-Muα-Neu5Ac, 2-(4-methylumbelliferyl)-α-D-N-acetylneuraminic acid] | 514.3 | 585 | 5.025 | 487
CC(=O)N[C@H]1[C@H]([C@H](O)[C@H](O)CO)O[C@@](OC[C@H]2O[C@@H](O[C@H]3[C@H](O)[C@@H](NC(C)=O)C(O)O[C@@H]3CO)[C@H](O)[C@@H](O)[C@H]2O)(C(=O)O)C[C@@H]1O (stereo partly drawn) [6SLN, 6′-sialyl-N-acetyllactosamine] | 104.2 | 679 | 1.07 | 534
